Data published in US12534436B2, “Disubstituted adamantyl derivative or pharmaceutically acceptable salt thereof, and pharmaceutical composition for suppressing cancer growth comprising same as active ingredient” (ONECUREGEN CO., LTD., priority 2020, dated 2026).

Legend:
[1] = test system: HIF-1α; assay: Western blot of HIF-1α accumulation in HepG2 cells; assay type: cell-based, human
[2] = test system: HIF-1α; assay: HIF-1α protein accumulation in other cancer cell lines under hypoxia; assay type: cell-based, human; details: A549, WiDr, MIA-CaCa2 and HCT116 (FIG. 2D)
[3] = test system: mitochondrial respiration; assay: Oxygen consumption rate (OCR), Oxytherm Clark-type electrode, HepG2 cells; assay type: cell-based, human; details: 2 μM, 6 hours (FIG. 3A)
Description: Compounds that suppress mitochondrial respiration promote degradation of HIF-1α by increasing cellular oxygen content. Accordingly, it was investigated whether LW1564 (compound 21-3) affected mitochondrial respiration by measuring the oxygen consumption rate (OCR). Oxygen consumption was measured using an Oxytherm Clark-type electrode system (Hansatech, Norfolk, UK) (Chou, T. C. Theoretical basis, experimental design, and computerized simulation of synergism and antagonism in drug combination studies. Pharmacol. Rev. 58, 621-681 (2006)). HepG2 cells (2×10^7) were cultured with 2 μM LW1564 (compound 21-3) for 6 hours, collected, and then OCR was measured at 37° C. for 5 minutes with a thermoregulated controlled circulating system. For […] studies, digitonin-permeabilised HepG2 cells (2×10^7) were read on a detection device containing 2 ml of respiratory buffer (0.25 M sucrose, 2 mM KH2PO4, 5 mM MgCl2, 1 mM EDTA, 1 mM ADP, 20 mM MOPS, pH 7.4). The following substrates, which provide electrons to the components in the ETC, were then added: 5 mM sodium pyruvate, 5 mM sodium malate, 5 mM sodium succinate, 5 mM L-ascorbic acid and 0.2 mM N,N,N,N-tetra methyl-p-phenylenediamine (TMPD). Complex I, III and IV inhibitors (rotenone, antimycin A and KCN, respectively) were added to a final concentration of 1 μM.

[4] = test system: ATP production; assay: ATP production and ATP content (ENLITEN ATP assay kit), HepG2 cells; assay type: cell-based, human
Description: Next, the effect of mitochondrial respiration on ATP production by oxidative phosphorylation was evaluated by comparing the amount of ATP produced by glycolysis decomposition and mitochondrial respiration in the presence of LW1564 (compound 21-3). ATP content was determined as described in “Chou, T. C. Theoretical basis, experimental design, and computerized simulation of synergism and antagonism in drug combination studies. Pharmacol. Rev. 58, 621-681 (2006).” After HepG2 cells were seeded and incubated with LW1564 (compound 21-3) for 6 hours, ATP content was measured using an ENLITEN® ATP assay kit (Promega, Madison, WI, USA) according to the manufacturer's instructions. Under normoxic conditions, HepG2 cells gained 47% of ATP by mitochondrial respiration and 53% by glycolysis decomposition. […] Compensatory upregulation of this degradation in response to suppression of oxidative phosphorylation occurred by AMPK activation, which was induced by a high AMP/ATP ratio.

[5] = test system: CCD-34Lu normal lung fibroblasts; assay: Cell viability by methylene blue colorimetric assay, normal cells CCD-34Lu; assay type: cell-based; details: Homo sapiens, Fibroblast; methylene blue assay (FIG. 1B); read-out: GI50, growth of normal cells CCD-34Lu
Description: (§1) Among the newly synthesized adamantyl compounds, it was evaluated how compound 21c (LW1564, Compound 21-3), FIG. 1A) affected proliferation suppression of various cancer cells. Human breast cancer cells (MCF7), human cervical cancer cells (HeLa), human colorectal cancer cells (HCT116, HCT15, LoVo, SW480, SW620 and WiDr), human fibrosarcoma cells (HT1080), human gastric cancer cells (NCI-N87, NUGC3 and SNU484), human liver cancer cells (HepG2, HT17, Huh7, SHJ1 and SK-Hep1), human lung cancer cells (A549 and H1299), human pancreatic cancer cells (AsPC1 and MIA-PaCa2) and normal lung fibroblasts (CCD-34Lu and WI-38) were purchased from the American Type Culture Collection (Manassas, Virginia, USA) or KRIBB Cell Line Bank (Daejeon). For cell culture, cells were cultured in a DMEM medium (Gibco, Grand Island, New York, USA) supplemented with 5% (v/v) fetal bovine serum (WelGENE, Daegu, Korea) and 100 U/ml penicillin and 100 μg/ml streptomycin (Gibco). Cells were maintained at 37° C. in a humidified incubator with 5% CO2, and hypoxia and a multi-gas incubator (Sanyo, Osaka, Japan) was adjusted to 1% O2, 94% N2 and 5% CO2. Cell viability was determined by methylene blue colorimetric assay as described in the “Chou, T. C. […] The dye was eluted with 0.1% HCl (v/v) and quantified at 600 nm on a Molecular Devices EMax (Molecular Devices, CA, USA). […]

[6] = test system: GLUT1, PDK1 and VEGF mRNA; assay: qPCR of HIF-1 target genes in HepG2 cells; assay type: cell-based, human; details: hypoxia, HepG2 cells (FIG. 2E)
Description: Next, mRNA levels of HIF-1 target genes GLUT1, PDK1 and VEGF were measured. The primer sequences were Fwd 5′-TTTGGCTACAACACTGGAGTC-3′ (SEQ ID NO: 1) and Rev 5′-CATGCCCCCAACAGAAAAGAT-3′ (SEQ ID NO: 2) for GLUT1; Fwd 5′-CAGGACAGCCAATACAAGTGG-3′ (SEQ ID NO: 3) and Rev 5′-CATTACCCAGCGTGACATGAA-3′ (SEQ ID NO: 4) for PDK1; Fwd 5′-CCTTGCTGCTCTACCTCCAC-3′ (SEQ ID NO: 5) and Rev 5′-ATGATTCTGCCCTCCTCCTT-3′ (SEQ ID NO: 6) for VEGFA; and Fwd 5′-CATAGGAAGCTGGGAGCAAG-3′ (SEQ ID NO: 7) and Rev 5′-GCCCTCCAATCAGTCTTCTG-3′ (SEQ ID NO: 8) for RPL13A. […] Taken together, it was identified that LW1564 (compound 21-3) suppressed HIF-1α accumulation through stimulated proteasome degradation, thereby reducing the mRNA expression of the target gene.

[7] = test system: WI-38 normal lung fibroblasts; assay: Cell viability by methylene blue colorimetric assay, normal cells WI-38; assay type: cell-based; details: Homo sapiens, methylene blue assay (FIG. 1B), read-out: GI50, growth of normal cells WI-38
Description: as §1

COc1cc2c(cc1OC)CN(C(=O)C13CC4CC(C1)CC(c1ccc(OCC(=O)N5CCN(Cc6ccc(C(F)(F)F)cc6)CC5)cc1)(C4)C3)CC2 [Compound 21c, 2-(4-(3-(6,7-Dimethoxy-1,2,3,4-tetrahydroisoquinoline-2-carbonyl)adamantan-1-yl)phenoxy)-1-(4-(4-(trifluoromethyl)benzyl)piperazin-1-yl) ethanone]
HIF-1α protein amount in the presence of cobalt chloride ([1]; Western blot, cobalt chloride (FIG. 2B)): did not affect HIF-la protein amount | accumulation of HIF-1α ([1]; hypoxic conditions (FIG. 2B)): suppressed the accumulation of HIF-1α in a concentration-dependent manner | HIF-1α protein accumulation in various cancer cell lines [2]: significantly reduced HIF-1α protein accumulation | oxygen consumption rate (OCR) [3]: significantly suppressed OCR | glycolysis-derived ATP production ([4]; HepG2 cells (FIG. 3B)): increased | total ATP production, short period of time ([4]; HepG2 cells (FIG. 3B)): slightly decreased total ATP production | intracellular total ATP levels, longer period ([4]; HepG2 cells (FIG. 3C)): significantly decreased intracellular total ATP levels | mitochondrial-derived ATP production ([4]; HepG2 cells, normoxic, untreated cells 47% of ATP by mitochondrial respiration (FIG. 3B)): 16% | GI50 [5]: > 20 µM | mRNA amount of HIF-1 target genes GLUT1, PDK1 and VEGF [6]: decreased the mRNA amount of GLUT1, PDK1 and VEGF | GI50 [7]: > 20 µM
